Data published in patent US20220125987A1, “WOUND CLOSURE DEVICES COMPRISING PROTOCATECHUIC ACID” (priority 2020, published 2022).
“Also recorded” adds a separate entry of the source.

What was measured:
Pseudomonas aeruginosa [1] = assay: Kirby-Bauer disc diffusion antimicrobial susceptibility testing; format: cell-based
IGF-1, TGF-β, EGF = assay: Local growth factor levels in normal (unstripped, uninfected) mouse skin (Example 4); format: in vivo, mice; conditions: 100 μM topical, normal rodent skin
Procedure: Mice were shaved but unstrapped and uninfected (normal rodent skin). The test reagents were applied topically in an aqueous solution on the unstripped site at two hours and daily on day 1, 2 and 3. Testing reagents consisted of […] and PCA formulated at one dose, 100 μM in an aqueous solution.

[2] = system: P. aeruginosa (ACTA 9027); assay: Mouse tape-stripped skin wound infection model (Example 2); format: in vivo; conditions: day five; for bacterial burden: topical aqueous 50, 100, 200 mM at two hours and daily for four days, none statistically significant; for most effective dose concentration: topical aqueous
P. acnes = assay: Kirby-Bauer disc diffusion antimicrobial susceptibility testing; format: cell-based
[3] = system: P. aeruginosa (ACTA 27853); assay: Mouse tape-stripped skin wound infection model (Example 3); format: in vivo; conditions: for bacterial burden: 48 and 96 hours
Procedure: Mice had back skin tape stripped and the stripped site (wound) was infected with P. aeruginosa (ACTA 27853). The test reagents were applied topically in an aqueous solution on the stripped site at two hours and daily on day 1, 2 and 3.
C3G, an anthocyanin and its main metabolite PCA were formulated and tested at several doses. The aqueous carrier was water. The C3G formulation included 100 mM and 200 mM dose concentrations and the PCA formulation included 25 and 50 mM dose concentrations.

[4] = system: stripped skin wound infected with Pseudomonas aeruginosa (ATCC 27853); assay: Histology of stripped, infected and treated mouse skin wound (Example 6); conditions: 48 hours; for tissue repair as evidenced by histology: two different doses
Pseudomonas aeruginosa [5] = assay: Bacterial kill in stripped skin wound of a rodent; format: in vivo; conditions: for bactericidal effect on stripped skin wound: topical at various calculated doses, in 48 to 96 hours; for kill of Pseudomonas aeruginosa: topical on stripped skin wound, in 48 hours, both reagents and dose
Excerpt: Experimental Groups: There were 4 experimental groups. […] Treatment varied by reagent and dosage.

MRSA = conditions: cited from earlier work
[6] = system: Staphylococcus aureus ATCC 33591 (MRSA); assay: Kirby-Bauer disc diffusion antimicrobial susceptibility testing; format: cell-based
[7] = female, rat, in vivo
Candida albicans = assay: Kirby-Bauer disc diffusion antimicrobial susceptibility testing; format: cell-based
Excerpt: This example describes the method for testing the antimicrobial susceptibility of anthocyanins, anthocyanidins, or metabolites and compounds thereof. The Kirby-Bauer method of disc diffusion was used for testing, following a standard set of procedures recommended by the NCCLS. In this methodology, a set of discs saturated with either testing compounds or a control was placed on inoculated agar plates. The plates were inoculated with organisms including C. difficile, P. acnes, C. prefringens, L. casei, C. albicans, E. coli, ATTC 8739 and ATCC 43895, S. aureus, S. mutans, S. pyogenes, P. aeruginosa and K. pneumonia. The control sample was amoxicillin, an antimicrobial with very effective broad-spectrum antibiotic properties. Samples included delphinidin, pelargonidin, cyanidin CI, 28% cyanindin-3-glucoside (C3G), protocatechuic acid (PCA) and 2,4,6 Trihydroxybenzaldehyde (2,4,6 THBA).
After 18, 24, or 48 hours of incubation, depending upon the microorganism, each plate was examined. The diameters of the zones of complete inhibition were measured, including the diameter of the disc. Zones were measured to the nearest millimeter, using sliding calipers. The size of the zones of inhibition was interpreted by referring to NCCLS standard. […]

[8] = rat, in vivo; cited from earlier work
[9] = after ingestion; cited from earlier work
Pseudomonas = conditions: cited from earlier work
[10] = human skin; cited from earlier work
IGF-1, TGE-β, EGF = assay: Growth factor levels by ELISA in stripped, infected mouse skin (Example 5); format: in vivo, mice
Procedure: Four different conditions were used: mice had back skin tape stripped and the stripped site (wound) was infected with P. aeruginosa; mice had back skin stripped and were not infected, mice had taped stripped, infected and treated with PCA, mice were tape stripped, uninfected, and treated with PCA. When used, the PCA test reagent was applied topically in an aqueous solution on the stripped site at two hours and 24 hours.
The testing reagents consisted of and PCA formulated at one dose, 25 mM, in an aqueous solution. Levels of IGF-1, TGE-β, and EGF levels in the skin tissue at 48 hours were measured by ELISA. There were two control groups: the stripped skin and the stripped skin and infected.

[11] = all tested doses (PCA 25, 50 mM; C3G 100, 200 mM)

CC1(C)S[C@@H]2[C@H](NC(=O)[C@H](N)c3ccc(O)cc3)C(=O)N2[C@H]1C(=O)O [Amoxicillin, amoxicillin, reference compound]
activity against Pseudomonas aeruginosa (Pseudomonas aeruginosa [1]): no effect

OC[C@H]1O[C@@H](Oc2cc3c(O)cc(O)cc3[o+]c2-c2ccc(O)c(O)c2)[C@H](O)[C@@H](O)[C@@H]1O [C3G, Cyanidin 3-glucoside]
all three local growth hormones (IGF-1, TGF-β, EGF) (IGF-1, TGF-β, EGF): decrease of all three local growth hormones
bacterial burden [2]: decreased the bacterial burden
most effective dose concentration [2]: 100 mM
activity against P. acnes (P. acnes): bactericidal
bacterial burden ([3]; 100 mM topical): significantly reduced the bacterial burden
bacterial burden ([3]; 200 mM topical): significantly reduced the bacterial burden
bacterial burden [3, 11]: decreased the bacterial burden
dermal layer thickness ([4]; C3G 100 mM): thicker
hair follicles, cellular lining ([4]; C3G 100 mM): single and double cellular lining
inflammation ([4]; C3G 100 mM): inflammation in the dermis and muscular layer and below
surface cellularity ([4]; C3G 100 mM): multiple cellular covering of the surface
vascularity ([4]; C3G 100 mM): prominent
dermal layer thickness ([4]; C3G 200 mM): thickened
hair follicles, cellular lining ([4]; C3G 200 mM): single and double cellular lining
inflammation ([4]; C3G 200 mM): inflammation in the dermis and muscular layer
surface cellularity ([4]; C3G 200 mM): multiple cells thick
vascularity ([4]; C3G 200 mM): increased
tissue repair as evidenced by histology [4]: stimulated tissue repair
bactericidal effect on stripped skin wound (Pseudomonas aeruginosa [5]): bactericidal
kill of Pseudomonas aeruginosa (Pseudomonas aeruginosa [5]): 10,000 fold

O=C(O)c1ccc(O)c(O)c1 [PCA, 3,4 dihydroxybenzoic acid]
biofilm destruction, MRSA (MRSA): biofilm destroyer
bacterial burden [2]: decreased the bacterial burden
most effective dose concentration [2]: 50 mM
activity against P. acnes (P. acnes): bactericidal
statistical significance of bacterial burden reduction ([3]; 25 mM topical): statistically significant at 48 hours
bacterial burden ([3]; 25 mM topical): reduced the bacterial burden at both time periods
bacterial burden [3, 11]: decreased the bacterial burden
activity against Staphylococcus aureus ATCC 33591 (MRSA) [6]: effective
human relative dose to exceed safety [7]: 350,000 milligrams per day
susceptibility of Candida albicans (Candida albicans): susceptible
toxicity [8]: greater than 5000 mg/kg body weight
activity against Pseudomonas aeruginosa (Pseudomonas aeruginosa [1]): some effectiveness
duration of metabolism prior to excretion in the urine and feces [9]: eight
biofilm destruction, Pseudomonas (Pseudomonas): biofilm destroyer
skin irritation [10]: no skin irritation
collagen between epidermis and dermis ([4]; PCA 25 mM): collagen proliferation between the epidermis and dermis; also recorded: collagen layer formation between the epidermis and dermis
dermal layer thickness ([4]; PCA 25 mM): thickened
hair follicles, cellular lining ([4]; PCA 25 mM): prominent with multiple cellular lining
inflammation ([4]; PCA 25 mM): abundant inflammation
surface cellularity ([4]; PCA 25 mM): abundant and multiple cell layers
vascularity ([4]; PCA 25 mM): moderate vascularity, but less than that seen in infected untreated group
dermal layer thickness ([4]; PCA 50 mM): thicker
hair follicles, cellular lining ([4]; PCA 50 mM): double layer of cells
inflammation ([4]; PCA 50 mM): increased in the dermis and below the muscle layer
surface cellularity ([4]; PCA 50 mM): covered with multiple layers of cells
vascularity ([4]; PCA 50 mM): increased vascularity
tissue repair as evidenced by histology [4]: stimulated tissue repair
bactericidal effect on stripped skin wound (Pseudomonas aeruginosa [5]): bactericidal
kill of Pseudomonas aeruginosa (Pseudomonas aeruginosa [5]): 10,000 fold
IGF-1 production (IGF-1, TGE-β, EGF; 25 mM topical at 2 and 24 hours, stripped and infected skin, 48 hours): optimizes the IGF-1 production
local growth hormones (IGF-1, TGE-β, EGF; 25 mM topical, stripped and infected skin): optimizes the local growth hormones
EGF response level (IGF-1, TGE-β, EGF; 25 mM topical, stripped, infected and treated wound vs other groups, 48 hours): lowest
